# From ChEMBL document CHEMBL5465560, “Selectivity Literature for EUbOPEN Chemogenomic Library” (2024)
# Columns and labels:
# [1] = target: BDNF/NT-3 growth factors receptor (Homo sapiens) (UniProt Q16620); settings: at 10 µM
# [2] = target: T1, Serine/threonine-protein kinase ULK3 (Homo sapiens) (UniProt Q6PHR2); assay: Selectivity interaction (KinomeScan (DiscoverX)) EUB0000092b ULK3; settings: at 10 µM
# T1 sequence (whole entry): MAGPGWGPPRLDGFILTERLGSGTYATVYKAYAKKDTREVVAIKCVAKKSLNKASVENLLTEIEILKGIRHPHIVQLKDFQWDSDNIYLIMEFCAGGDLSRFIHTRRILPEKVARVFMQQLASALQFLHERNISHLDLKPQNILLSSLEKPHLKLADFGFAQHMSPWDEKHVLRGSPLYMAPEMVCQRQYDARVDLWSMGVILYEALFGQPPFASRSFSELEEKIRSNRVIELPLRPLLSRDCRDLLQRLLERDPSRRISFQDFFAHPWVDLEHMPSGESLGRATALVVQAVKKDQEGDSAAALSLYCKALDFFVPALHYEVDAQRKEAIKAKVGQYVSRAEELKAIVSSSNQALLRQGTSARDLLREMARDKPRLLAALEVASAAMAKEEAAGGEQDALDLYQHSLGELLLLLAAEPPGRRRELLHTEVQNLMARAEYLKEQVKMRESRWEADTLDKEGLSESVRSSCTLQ
# [3] = target: Serine/threonine-protein kinase mTOR (Homo sapiens, UniProt P42345); settings: at 10 µM
# [4] = target: Bone morphogenetic protein receptor type-1B (Homo sapiens, UniProt O00238); assay: Selectivity interaction (KinomeScan (DiscoverX)) EUB0001079a BMPR1B; settings: at 1 µM
# [5] = target: Calcium/calmodulin-dependent protein kinase type II subunit beta (Homo sapiens) (UniProt Q13554); assay: Selectivity interaction (ActivX KiNativ screen (kinase selectivity in THP-1 cell lysates)) EUB0000639a CAMK2B; format: subcellular; settings: lysate, at 0.04 µM
# [6] = target: T2, Serine/threonine-protein kinase TBK1 (Homo sapiens) (UniProt Q9UHD2); assay: Selectivity interaction (ActivX KiNativ screen (kinase selectivity in THP-1 cell lysates)) EUB0000639a TBK1; format: subcellular; settings: lysate, at 0.2 µM
# T2 sequence (whole entry): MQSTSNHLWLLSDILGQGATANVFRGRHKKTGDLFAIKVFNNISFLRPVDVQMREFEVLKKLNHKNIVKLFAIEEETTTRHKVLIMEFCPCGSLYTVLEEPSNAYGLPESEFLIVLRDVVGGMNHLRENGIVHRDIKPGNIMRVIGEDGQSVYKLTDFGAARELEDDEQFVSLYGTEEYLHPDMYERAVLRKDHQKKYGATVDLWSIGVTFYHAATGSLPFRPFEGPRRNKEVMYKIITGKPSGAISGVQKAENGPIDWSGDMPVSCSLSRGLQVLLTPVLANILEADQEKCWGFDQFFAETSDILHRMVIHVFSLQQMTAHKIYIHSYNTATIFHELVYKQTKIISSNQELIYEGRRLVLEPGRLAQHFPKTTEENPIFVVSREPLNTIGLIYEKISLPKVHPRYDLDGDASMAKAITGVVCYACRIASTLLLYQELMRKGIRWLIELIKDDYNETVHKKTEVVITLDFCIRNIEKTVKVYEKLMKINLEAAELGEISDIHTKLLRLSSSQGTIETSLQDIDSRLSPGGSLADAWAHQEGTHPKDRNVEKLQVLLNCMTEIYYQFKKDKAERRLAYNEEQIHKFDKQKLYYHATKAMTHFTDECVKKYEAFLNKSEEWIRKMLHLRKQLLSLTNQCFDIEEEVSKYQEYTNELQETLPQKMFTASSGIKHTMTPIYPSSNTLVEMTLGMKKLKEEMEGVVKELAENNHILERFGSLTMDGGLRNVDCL
# [7] = target: T3, Serine/threonine-protein kinase Chk1 (Homo sapiens) (UniProt O14757); assay: Selectivity interaction (SelectScreen profiling (Invitrogen)) EUB0000607a CHEK1; settings: at 2 µM
# T3 sequence (whole entry): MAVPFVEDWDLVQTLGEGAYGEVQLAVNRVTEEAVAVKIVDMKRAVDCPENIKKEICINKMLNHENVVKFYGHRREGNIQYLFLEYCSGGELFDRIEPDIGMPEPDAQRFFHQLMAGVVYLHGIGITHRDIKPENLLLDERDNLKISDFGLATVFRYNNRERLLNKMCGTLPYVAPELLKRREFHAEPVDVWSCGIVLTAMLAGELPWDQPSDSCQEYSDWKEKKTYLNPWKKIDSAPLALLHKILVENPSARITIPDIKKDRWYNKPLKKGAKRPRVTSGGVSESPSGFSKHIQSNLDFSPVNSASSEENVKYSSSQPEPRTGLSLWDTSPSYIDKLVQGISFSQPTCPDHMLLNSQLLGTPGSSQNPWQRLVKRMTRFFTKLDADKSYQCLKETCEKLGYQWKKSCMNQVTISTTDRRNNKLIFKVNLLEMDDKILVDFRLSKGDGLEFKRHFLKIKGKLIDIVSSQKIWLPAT
# [8] = target: T4, Serine/threonine-protein kinase tousled-like 1 (Homo sapiens) (UniProt Q9UKI8); assay: Selectivity interaction (KinomeScan (DiscoverX)) EUB0000607a TLK1; settings: at 10 µM
# T4 sequence (whole entry): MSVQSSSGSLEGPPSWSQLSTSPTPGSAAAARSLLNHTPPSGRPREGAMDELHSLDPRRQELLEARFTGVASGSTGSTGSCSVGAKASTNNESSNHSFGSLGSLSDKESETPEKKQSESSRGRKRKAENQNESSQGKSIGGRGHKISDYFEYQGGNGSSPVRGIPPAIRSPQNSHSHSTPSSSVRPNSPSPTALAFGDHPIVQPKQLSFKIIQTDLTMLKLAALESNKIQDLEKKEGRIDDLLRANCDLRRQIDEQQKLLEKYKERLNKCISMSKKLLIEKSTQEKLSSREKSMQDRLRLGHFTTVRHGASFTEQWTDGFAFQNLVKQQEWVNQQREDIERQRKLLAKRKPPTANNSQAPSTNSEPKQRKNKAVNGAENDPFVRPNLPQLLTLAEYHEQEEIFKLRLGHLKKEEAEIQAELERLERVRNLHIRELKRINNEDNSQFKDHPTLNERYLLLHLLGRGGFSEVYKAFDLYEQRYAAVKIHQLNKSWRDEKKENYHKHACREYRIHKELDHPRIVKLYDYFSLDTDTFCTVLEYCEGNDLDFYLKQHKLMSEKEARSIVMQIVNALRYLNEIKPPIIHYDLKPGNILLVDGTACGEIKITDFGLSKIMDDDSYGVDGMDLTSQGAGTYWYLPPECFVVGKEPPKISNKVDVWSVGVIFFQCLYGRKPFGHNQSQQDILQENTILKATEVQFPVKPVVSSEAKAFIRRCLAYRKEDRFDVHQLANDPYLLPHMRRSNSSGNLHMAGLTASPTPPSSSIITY
# [9] = system: Epidermal growth factor receptor (Homo sapiens), P00533 [UNDEFINED MUTATION]; assay: Selectivity interaction (KinomeScan (DiscoverX)) EUB0001619a EGFR; settings: at 1 µM
# Epidermal growth factor receptor (Homo sapiens), P00533 [UNDEFINED MUTATION], sequence (P00533 whole entry, looked up, change not shown): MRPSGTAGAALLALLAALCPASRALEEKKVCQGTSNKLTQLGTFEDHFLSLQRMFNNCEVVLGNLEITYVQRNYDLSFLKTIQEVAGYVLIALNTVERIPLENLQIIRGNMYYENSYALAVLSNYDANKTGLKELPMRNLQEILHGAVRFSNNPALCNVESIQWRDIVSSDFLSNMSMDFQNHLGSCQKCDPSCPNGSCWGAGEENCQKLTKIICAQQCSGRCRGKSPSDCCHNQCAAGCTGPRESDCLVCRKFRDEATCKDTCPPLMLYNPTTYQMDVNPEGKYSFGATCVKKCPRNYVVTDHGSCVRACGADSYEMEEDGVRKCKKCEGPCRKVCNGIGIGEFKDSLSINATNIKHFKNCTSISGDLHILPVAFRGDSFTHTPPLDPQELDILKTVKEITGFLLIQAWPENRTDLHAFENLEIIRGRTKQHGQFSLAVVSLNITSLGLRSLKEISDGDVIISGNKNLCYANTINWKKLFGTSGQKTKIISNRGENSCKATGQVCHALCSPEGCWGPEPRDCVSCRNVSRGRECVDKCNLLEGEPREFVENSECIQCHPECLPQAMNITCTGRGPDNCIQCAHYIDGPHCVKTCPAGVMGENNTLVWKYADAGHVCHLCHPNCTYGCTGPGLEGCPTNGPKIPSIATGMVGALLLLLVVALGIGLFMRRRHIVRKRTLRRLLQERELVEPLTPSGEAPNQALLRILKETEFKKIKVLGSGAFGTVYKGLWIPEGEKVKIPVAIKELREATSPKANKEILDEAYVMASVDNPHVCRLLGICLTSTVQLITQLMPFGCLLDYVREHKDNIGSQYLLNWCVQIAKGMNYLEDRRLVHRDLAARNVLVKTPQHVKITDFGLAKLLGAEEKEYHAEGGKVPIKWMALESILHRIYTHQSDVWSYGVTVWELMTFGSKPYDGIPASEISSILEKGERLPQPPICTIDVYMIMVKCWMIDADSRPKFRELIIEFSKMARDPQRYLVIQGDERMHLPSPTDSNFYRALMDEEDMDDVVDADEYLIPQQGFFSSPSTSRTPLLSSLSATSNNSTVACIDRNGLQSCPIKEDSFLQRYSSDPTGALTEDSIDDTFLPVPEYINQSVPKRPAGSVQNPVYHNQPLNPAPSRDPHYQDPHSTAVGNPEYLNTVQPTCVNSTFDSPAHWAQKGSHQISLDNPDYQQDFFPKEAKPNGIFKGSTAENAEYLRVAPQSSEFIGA
# BDNF/NT-3 growth factors receptor (Homo sapiens), sequence (Q16620 32-822 limits assumed): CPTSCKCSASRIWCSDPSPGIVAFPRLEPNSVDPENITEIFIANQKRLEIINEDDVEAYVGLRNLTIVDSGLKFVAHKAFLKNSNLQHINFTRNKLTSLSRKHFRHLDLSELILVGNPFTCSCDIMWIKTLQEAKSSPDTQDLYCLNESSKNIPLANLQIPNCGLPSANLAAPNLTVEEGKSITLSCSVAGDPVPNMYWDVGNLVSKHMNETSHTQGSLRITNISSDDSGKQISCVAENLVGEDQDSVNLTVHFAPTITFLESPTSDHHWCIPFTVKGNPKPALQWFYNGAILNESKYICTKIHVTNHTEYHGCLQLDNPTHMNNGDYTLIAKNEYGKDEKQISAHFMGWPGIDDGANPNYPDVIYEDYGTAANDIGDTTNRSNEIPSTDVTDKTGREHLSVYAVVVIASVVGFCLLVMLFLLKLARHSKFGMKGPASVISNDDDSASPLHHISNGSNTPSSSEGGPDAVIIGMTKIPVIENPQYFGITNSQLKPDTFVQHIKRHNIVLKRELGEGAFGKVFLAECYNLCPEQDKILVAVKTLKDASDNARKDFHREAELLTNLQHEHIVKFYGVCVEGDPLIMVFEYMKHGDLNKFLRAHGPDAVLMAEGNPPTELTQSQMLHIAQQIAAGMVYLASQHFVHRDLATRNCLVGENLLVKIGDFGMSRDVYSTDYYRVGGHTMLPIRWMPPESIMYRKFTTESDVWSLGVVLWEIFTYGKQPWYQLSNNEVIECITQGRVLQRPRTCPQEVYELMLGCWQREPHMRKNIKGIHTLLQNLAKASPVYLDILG
# Calcium/calmodulin-dependent protein kinase type II subunit beta (Homo sapiens), sequence (Q13554 whole entry): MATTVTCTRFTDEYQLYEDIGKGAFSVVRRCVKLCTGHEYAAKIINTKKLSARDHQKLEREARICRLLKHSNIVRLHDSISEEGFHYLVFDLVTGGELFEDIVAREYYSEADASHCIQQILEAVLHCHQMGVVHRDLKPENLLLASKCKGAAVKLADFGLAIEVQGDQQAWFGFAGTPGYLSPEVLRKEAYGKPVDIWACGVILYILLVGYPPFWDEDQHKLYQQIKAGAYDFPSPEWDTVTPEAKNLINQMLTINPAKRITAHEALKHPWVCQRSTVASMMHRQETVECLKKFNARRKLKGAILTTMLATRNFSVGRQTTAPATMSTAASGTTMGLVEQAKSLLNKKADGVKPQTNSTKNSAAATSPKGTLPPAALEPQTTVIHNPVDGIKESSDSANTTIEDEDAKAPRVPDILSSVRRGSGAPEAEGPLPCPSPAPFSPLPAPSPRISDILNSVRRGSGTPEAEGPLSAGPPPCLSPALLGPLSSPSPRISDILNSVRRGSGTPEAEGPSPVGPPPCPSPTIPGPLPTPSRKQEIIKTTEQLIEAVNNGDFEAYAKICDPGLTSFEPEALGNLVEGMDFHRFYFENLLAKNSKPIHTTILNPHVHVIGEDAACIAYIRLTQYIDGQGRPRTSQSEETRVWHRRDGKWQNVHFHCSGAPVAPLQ
# Bone morphogenetic protein receptor type-1B, sequence (O00238 whole entry): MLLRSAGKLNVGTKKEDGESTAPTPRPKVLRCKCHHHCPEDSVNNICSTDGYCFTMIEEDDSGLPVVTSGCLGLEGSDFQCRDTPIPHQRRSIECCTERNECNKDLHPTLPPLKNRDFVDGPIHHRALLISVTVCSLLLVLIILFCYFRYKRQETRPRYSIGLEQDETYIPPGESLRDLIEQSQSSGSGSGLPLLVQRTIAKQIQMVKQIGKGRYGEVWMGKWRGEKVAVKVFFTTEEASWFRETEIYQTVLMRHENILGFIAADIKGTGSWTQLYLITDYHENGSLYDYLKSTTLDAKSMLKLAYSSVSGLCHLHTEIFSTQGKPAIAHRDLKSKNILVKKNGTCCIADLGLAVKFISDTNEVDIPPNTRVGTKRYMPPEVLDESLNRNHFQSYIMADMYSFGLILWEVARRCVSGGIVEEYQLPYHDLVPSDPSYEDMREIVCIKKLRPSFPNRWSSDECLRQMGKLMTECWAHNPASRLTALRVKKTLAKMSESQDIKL
smiles,measurement,setting,value
CCN(CC)CCCCNc1ncc2cc(-c3cc(OC)cc(OC)c3)c(NC(=O)NC(C)(C)C)nc2n1,% of control,[1],100%
CCC(=O)N1CCN(c2ccc(-n3c(=O)ccc4cnc5ccc(-c6cnc7ccccc7c6)cc5c43)cc2C(F)(F)F)CC1,% of control,[2],100%
same,% of control,[3],0%
Nc1cnc(N2CCc3cc(S(=O)(=O)Nc4c(F)cc(Cl)cc4F)cc(N4CCCC4=O)c32)nc1 [TP-020n],% of control,[4],100%
CC[C@@H]1[C@H](F)C(=O)N[C@@H]1COc1nccc2cc(C(N)=O)c(OC)cc12 [ZIMLOVISERTIB],% of inhibition,[5],12.8%
same,% of inhibition,[6],-31.6%
CNC(=O)Nc1ccc(-c2nc(N3CC4CCC(C3)O4)c3cnn(C4CCC5(CC4)OCCO5)c3n2)cc1,% of inhibition,[7],9%
same,% of control,[8],86%
N#Cc1cccc(-c2c[nH]c3ncnc(N4CCOCC4)c23)c1,% of control,[9],79%
